Values belong to the molecule of their own block, whether it stands above or below them.
Target: T1, F508del (Homo sapiens, UniProt P13569, DEL508-508)
T1 construct: expressed in transfected cells
Assay: Protocol 1: membrane potential optical assay (FLIPR III, voltage sensing dye), identification of potentiator compounds
Assay type: cell-based
Conditions: Table 3, compounds of Table 1
Outline: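 Membrane potential in forskolin-activated, temperature-rescued F508del NIH 3T3 cells is followed with a voltage-sensing dye on FLIPR III. A chloride ion gradient created at the single addition step provides the driving force, after prior compound treatment.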

T1 sequence (P13569 with tags, fused parts or gaps DEL508-508): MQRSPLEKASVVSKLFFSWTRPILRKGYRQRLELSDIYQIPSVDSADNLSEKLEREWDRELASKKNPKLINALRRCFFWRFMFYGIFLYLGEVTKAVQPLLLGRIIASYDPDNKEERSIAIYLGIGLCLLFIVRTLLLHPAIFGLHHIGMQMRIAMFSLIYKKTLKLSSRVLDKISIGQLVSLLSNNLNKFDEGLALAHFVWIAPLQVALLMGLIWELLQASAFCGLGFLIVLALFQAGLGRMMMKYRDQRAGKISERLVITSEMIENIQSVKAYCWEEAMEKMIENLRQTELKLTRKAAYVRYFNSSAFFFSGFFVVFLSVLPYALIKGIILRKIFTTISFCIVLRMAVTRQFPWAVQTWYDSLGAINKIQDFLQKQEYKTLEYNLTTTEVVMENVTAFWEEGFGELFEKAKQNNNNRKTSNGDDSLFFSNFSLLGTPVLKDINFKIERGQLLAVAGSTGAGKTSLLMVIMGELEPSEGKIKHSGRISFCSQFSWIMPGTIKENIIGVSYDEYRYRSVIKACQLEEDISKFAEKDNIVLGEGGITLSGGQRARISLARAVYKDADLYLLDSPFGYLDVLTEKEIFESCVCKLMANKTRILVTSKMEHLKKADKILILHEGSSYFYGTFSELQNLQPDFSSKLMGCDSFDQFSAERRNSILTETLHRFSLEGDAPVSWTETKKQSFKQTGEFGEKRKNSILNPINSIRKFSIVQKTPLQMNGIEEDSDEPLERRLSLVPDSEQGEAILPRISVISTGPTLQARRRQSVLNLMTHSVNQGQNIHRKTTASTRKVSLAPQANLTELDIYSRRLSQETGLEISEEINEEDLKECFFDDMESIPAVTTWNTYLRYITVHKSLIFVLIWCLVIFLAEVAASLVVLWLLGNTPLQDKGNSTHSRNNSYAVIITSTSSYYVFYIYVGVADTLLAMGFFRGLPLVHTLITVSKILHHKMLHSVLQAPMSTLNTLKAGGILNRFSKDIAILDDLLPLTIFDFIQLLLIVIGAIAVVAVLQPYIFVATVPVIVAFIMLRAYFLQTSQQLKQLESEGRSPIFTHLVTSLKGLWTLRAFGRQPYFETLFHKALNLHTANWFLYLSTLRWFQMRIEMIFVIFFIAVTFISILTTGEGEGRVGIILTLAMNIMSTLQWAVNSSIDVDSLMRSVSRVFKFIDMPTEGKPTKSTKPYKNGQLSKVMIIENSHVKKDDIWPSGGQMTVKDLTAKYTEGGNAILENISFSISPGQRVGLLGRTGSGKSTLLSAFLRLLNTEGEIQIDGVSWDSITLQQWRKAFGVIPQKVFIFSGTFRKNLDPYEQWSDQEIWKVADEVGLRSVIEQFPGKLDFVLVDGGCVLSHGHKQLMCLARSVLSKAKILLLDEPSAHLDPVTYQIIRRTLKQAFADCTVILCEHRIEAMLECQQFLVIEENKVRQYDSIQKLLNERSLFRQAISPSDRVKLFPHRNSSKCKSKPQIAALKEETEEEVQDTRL

Structure (SMILES): CC1CN(c2nc(C(C)(C)C)c(C3=CCN(C(=O)OC(C)(C)C)CC3)cc2C(=O)NS(=O)(=O)c2cccc(N)n2)C(C)(C)C1 (centres unmarked) [Compound 1522, tert-butyl 4-[5-[(6-amino-2-pyridyl)sulfonylcarbamoyl]-2-tert-butyl-6-(2,2,4-trimethylpyrrolidin-1-yl)-3-pyridyl]-3,6-dihydro-2H-pyridine-1-carboxylate]
- EC30: +++ (“+++” means <3 uM)

Structure (SMILES): CC(C)COc1cncc(-c2ccc(C(=O)NS(=O)(=O)c3cccc(N)n3)c(N3C[C@@H](C)CC3(C)C)n2)n1 [Compound 1523, N-[(6-amino-2-pyridyl)sulfonyl]-6-(6-isobutoxypyrazin-2-yl)-2-[(4S)-2,2,4-trimethylpyrrolidin-1-yl]pyridine-3-carboxamide]
- EC30: +++ (“+++” means <3 uM)

Structure (SMILES): CC(C)COc1cc(F)cc(-c2ccc(C(=O)NS(=O)(=O)C3CC3)c(N3C[C@@H](C)CC3(C)C)n2)c1 [Compound 1525, N-cyclopropylsulfonyl-6-(3-fluoro-5-isobutoxy-phenyl)-2-[(4S)-2,2,4-trimethylpyrrolidin-1-yl]pyridine-3-carboxamide]
- EC30: +++ (“+++” means <3 uM)

Structure (SMILES): CC(C)COc1cc(F)cc(-c2cnc(C(=O)NS(=O)(=O)c3cccc(N)n3)c(N3C[C@@H](C)CC3(C)C)n2)c1 [Compound 1526, NV [(6-amino-2-pyridyl)sulfonyl]-5-(3-fluoro-5-isobutoxy-phenyl)-3-[(4S)-2,2,4-trimethylpyrrolidin-1-yl]pyrazine-2-carboxamide]
- EC30: +++ (“+++” means <3 uM)

Structure (SMILES): CC(C)COc1cc(F)cc(-c2ccc(C(=O)NS(=O)(=O)c3cccc(N)n3)c(N3CC4CC(C4)C3)n2)c1 [Compound 1529, N-[(6-amino-2-pyridyl)sulfonyl]-2-(3-azabicyclo[3.1.1]heptan-3-yl)-6-(3-fluoro-5-isobutoxy-phenyl)pyridine-3-carboxamide]
- EC30: +++ (“+++” means <3 uM)

Structure (SMILES): CC(C)COc1cc(F)cc(-c2ccc(C(=O)NS(=O)(=O)c3cccc(N)n3)c(OC3CCC3C3CC3)n2)c1 (centres unmarked) [Compound 1530, N-[(6-amino-2-pyridyl)sulfonyl]-2-(2-cyclopropylcyclobutoxy)-6-(3-fluoro-5-isobutoxy-phenyl)pyridine-3-carboxamide]
- EC30: +++ (“+++” means <3 uM)

Structure (SMILES): CC(C)COc1cc(F)cc(-c2ccc(C(=O)NS(=O)(=O)c3cccc(N)n3)c(C3=CC(C)(C)OC3(C)C)n2)c1 [Compound 1531, N-[(6-amino-2-pyridyl)sulfonyl]-6-(3-fluoro-5-isobutoxy-phenyl)-2-(2,2,5,5-tetramethyl-3-furyl)pyridine-3-carboxamide]
- EC30: ++ (“++” means between 3 uM and 10 uM)

Structure (SMILES): Cc1cn(-c2ccc(C(=O)NS(=O)(=O)c3cccc(N)n3)c(N3C[C@@H](C)CC3(C)C)n2)nc1OCC(C)C [Compound 1532, N-[(6-amino-2-pyridyl)sulfonyl]-6-(3-isobutoxy-4-methyl-pyrazol-1-yl)-2-[(4S)-2,2,4-trimethylpyrrolidin-1-yl]pyridine-3-carboxamide]
- EC30: +++ (“+++” means <3 uM)

Structure (SMILES): CC(=O)N(C)C1CCN(S(=O)(=O)NC(=O)c2ccc(-c3cc(F)cc(OCC(C)C)c3)nc2N2CC(C)CC2(C)C)C1 (centres unmarked) [Compound 1533, N—[3-[acetyl(methyl)amino]pyrrolidin-1-yl]sulfonyl-6-(3-fluoro-5-isobutoxy-phenyl)-2-(2,2,4-trimethylpyrrolidin-1-yl)pyridine-3-carboxamide]
- EC30: +++ (“+++” means <3 uM)

Structure (SMILES): Cc1nc(OCC(C)C)ccc1-c1ccc(C(=O)NS(=O)(=O)c2cccc(N)n2)c(N2[C@H](C)CC[C@@H]2C)n1 [Compound 1537, N-[(6-amino-2-pyridyl)sulfonyl]-2-[(2R,5S)-2,5-dimethylpyrrolidin-1-yl]-6-(6-isobutoxy-2-methyl-3-pyridyl)pyridine-3-carboxamide]
- EC30: +++ (“+++” means <3 uM)

Structure (SMILES): C[C@@H]1CN(c2nc(-c3cc(O)cc(F)c3)ccc2C(=O)NS(=O)(=O)c2ccccc2)C(C)(C)C1 [Compound 1538, N-(benzenesulfonyl)-6-(3-fluoro-5-hydroxy-phenyl)-2-[(4S)-2,2,4-trimethylpyrrolidin-1-yl]pyridine-3-carboxamide]
- EC30: + (“+” means greater than 10 uM)

Structure (SMILES): CCOc1cccc2c1CN(Cc1c(C)cc(C)cc1C)C2(C)C(=O)NS(=O)(=O)c1ccccc1 (centres unmarked) [Compound 1539, N-(benzenesulfonyl)-4-ethoxy-1-methyl-2-[(2,4,6-trimethylphenyl)methyl]isoindoline-1-carboxamide]
- EC30: +++ (“+++” means <3 uM)

Results, then the molecule that gave them:

- EC30: +++ (“+++” means <3 uM)
Structure (SMILES): C[C@@H]1CN(c2nc(C3=COCCC3)ccc2C(=O)NS(=O)(=O)c2cccc(N)n2)C(C)(C)C1 [Compound 1524, N-[(6-amino-2-pyridyl)sulfonyl]-6-(3,4-dihydro-2H-pyran-5-yl)-2-[(4S)-2,2,4-trimethylpyrrolidin-1-yl]pyridine-3-carboxamide]

- EC30: +++ (“+++” means <3 uM)
Structure (SMILES): CC(C)C[C@@H](C)Nc1ccc(-c2ccc(C(=O)NS(=O)(=O)c3cccc(N)n3)c(N3[C@H](C)CC[C@@H]3C)n2)cn1 [Compound 1527, N-[(6-amino-2-pyridyl)sulfonyl]-6-[6-[[(1R)-1,3-dimethylbutyl]amino]-3-pyridyl]-2-[(2S,5R)-2,5-dimethylpyrrolidin-1-yl]pyridine-3-carboxamide]

- EC30: ++ (“++” means between 3 uM and 10 uM)
Structure (SMILES): Cc1cc(C)c(Oc2nc(C3=CC(=O)CC(C)(C)C3)ccc2C(=O)NS(=O)(=O)c2cccc(N)n2)c(C)c1 [Compound 1528, N-[(6-amino-2-pyridyl)sulfonyl]-6-(5,5-dimethyl-3-oxo-cyclohexen-1-yl)-2-(2,4,6-trimethylphenoxy)pyridine-3-carboxamide]

- EC30: ++ (“++” means between 3 uM and 10 uM)
Structure (SMILES): C[C@@H]1CN(c2nc(C3CCOC3)ccc2C(=O)NS(=O)(=O)c2cccc(N)n2)C(C)(C)C1 (stereo partly drawn) [Compound 1534, N-[(6-amino-2-pyridyl)sulfonyl]-6-tetrahydrofuran-3-yl-2-[(4S)-2,2,4-trimethylpyrrolidin-1-yl]pyridine-3-carboxamide]

- EC30: +++ (“+++” means <3 uM)
Structure (SMILES): COc1ccc(/C=C/c2cc(C(=O)NS(=O)(=O)c3cccc(N)n3)c(N3C[C@@H](C)CC3(C)C)nc2C(C)(C)C)cc1 [Compound 1535, N-[(6-amino-2-pyridyl)sulfonyl]-6-tert-butyl-5-[(E)-2-(4-methoxyphenyl)vinyl]-2-[(4S)-2,2,4-trimethylpyrrolidin-1-yl]pyridine-3-carboxamide]

- EC30: ++ (“++” means between 3 uM and 10 uM)
Structure (SMILES): COc1ccc(C(=O)NS(=O)(=O)c2cccc(N)n2)c(N2C[C@@H](C)CC2(C)C)n1 [Compound 1536, N-[(6-amino-2-pyridyl)sulfonyl]-6-methoxy-2-[(4S)-2,2,4-trimethylpyrrolidin-1-yl]pyridine-3-carboxamide]

- EC30: + (“+” means greater than 10 uM)
Structure (SMILES): Cc1cc(C)c(Oc2nc(C3=CCN(C(=O)C(C)C)CC3)ccc2C(=O)NS(=O)(=O)c2cccc(N)n2)c(C)c1 [Compound 1540, N-[(6-amino-2-pyridyl)sulfonyl]-6-[1-(2-methylpropanoyl)-3,6-dihydro-2H-pyridin-4-yl]-2-(2,4,6-trimethylphenoxy)pyridine-3-carboxamide]

- EC30: +++ (“+++” means <3 uM)
Structure (SMILES): CCOc1cccc2c1CN(Cc1c(C)cc(C)cc1C)[C@]2(C)C(=O)NS(=O)(=O)c1ccc[nH]c1=O [Compound 1541, (1S)-4-ethoxy-1-methyl-N-[(2-oxo-1H-pyridin-3-yl)sulfonyl]-2-[(2,4,6-trimethylphenyl)methyl]isoindoline-1-carboxamide]
